Patent US8367677B2, “Non-glycosylated/non-glycosidic/non-peptidic small molecule PSGL-1 mimetics for the treatment of inflammatory disorders” (Revotar Biopharmaceuticals AG, priority 2004, dated 2013)

What was measured:
[1] = molecular target: T1, human P-Selectin-IgG-chimera (Homo sapiens, UniProt P16109); test: Sialyl Lewis x Tyrosine Sulfate Assay (sLex TSA), P-selectin; assay type: binding; details: for inhibition at 100 µM / P-Selectin [% Inhib.]: compound at 100 μM; for inhibition at 100 µM: read-out: P-Selectin [% Inhib.]
T1 sequence (P16109 42-771 limits assumed): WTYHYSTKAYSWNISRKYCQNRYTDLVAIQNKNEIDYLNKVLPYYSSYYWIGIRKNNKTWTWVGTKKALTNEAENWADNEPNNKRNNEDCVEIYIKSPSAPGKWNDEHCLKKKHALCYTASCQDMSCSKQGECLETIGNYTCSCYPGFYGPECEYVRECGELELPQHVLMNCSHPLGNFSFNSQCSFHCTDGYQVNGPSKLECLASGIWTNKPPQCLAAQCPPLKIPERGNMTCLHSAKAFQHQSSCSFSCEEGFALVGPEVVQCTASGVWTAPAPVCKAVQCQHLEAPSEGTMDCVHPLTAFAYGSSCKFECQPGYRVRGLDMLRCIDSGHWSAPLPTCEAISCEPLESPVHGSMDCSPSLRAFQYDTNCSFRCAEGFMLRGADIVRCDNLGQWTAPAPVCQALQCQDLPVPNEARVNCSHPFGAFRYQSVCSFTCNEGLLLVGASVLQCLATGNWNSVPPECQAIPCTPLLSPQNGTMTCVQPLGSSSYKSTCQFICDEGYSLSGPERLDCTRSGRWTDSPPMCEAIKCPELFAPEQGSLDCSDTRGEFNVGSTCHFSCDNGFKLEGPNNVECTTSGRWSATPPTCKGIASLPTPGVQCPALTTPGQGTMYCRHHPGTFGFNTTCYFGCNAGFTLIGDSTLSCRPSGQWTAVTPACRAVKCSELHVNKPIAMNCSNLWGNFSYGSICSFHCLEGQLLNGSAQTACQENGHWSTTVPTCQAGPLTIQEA
Description: (§1) Compounds of the present invention are assayed on a molecular level for their ability to inhibit the binding of P-, L-, or E-selectin chimeric molecules to sLe^x and tyrosinesulfate residues linked to a polymeric matrix as a PSGL-1 substitute.
(§2) Microtiter plates are coated overnight in carbonate buffer pH9.6 with goat anti human Fc mAB (10 μg/ml). After washing in assay buffer (25 mM 4-(2-hydroxyethyl)-1-piperazineethanesulfonic acid (HEPES), 150 mM NaCl, 1 mM CaCl2 pH7.4) and blocking (3% bovine serum albumin (BSA) in assay buffer) plates are incubated for 2 h at 37° C. with human P-Selectin-IgG-chimera (0.61 nM respectively 150 ng/mL) or human L-Selectin-IgG-chimera (0.61 nM respectively 89 ng/mL) or human E-Selectin-IgG-chimera (0.61 nM respectively 131 ng/mL). 5 μl of sLe^x-tyrosine sulfate polyacrylamide (1 mg/ml) carrying 15% sLe^x, 10% Tyrosine-sulfate and 5% biotin is complexed with 20 μl Streptavidin-Peroxidase solution (1 mg/ml) and 25 μl assay buffer without CaCl2. For use in the assay, the ligand complex is diluted 1:10000 in assay buffer and further diluted 1:1 with varying amounts of compounds in assay buffer incl. 2% DMSO. This mixture is added to the wells precoated with E- or P-selectin. After incubation for 2 h at 37° C., wells are washed for six times with in assay buffer incl. 0.005% Polyoxyethylenesorbitan monolaurate (TWEEN 20), developed for 10-15 min with 20 μl 3,3′,5,5′-tetramethylbenzidine (TMB)/H2O2 substrate solution and stopped with 20 μl […]. Bound sLe^x-Tyrosine sulfate ligand complex is determined by measuring optical density at 450 nm vs. 620 nm in a Fusion alpha-FP reader (sold from Packard Bioscience, Dreieich, Germany).

[2] = molecular target: T2, human E-Selectin-IgG-chimera (Homo sapiens, UniProt P16581); test: Sialyl Lewis x Tyrosine Sulfate Assay (sLex TSA), E-selectin; assay type: binding; details: for inhibition at 100 µM / E-Selectin [% Inhib.]: compound at 100 μM; for inhibition at 100 µM: read-out: E-Selectin [% Inhib.]
T2 construct: fused on or other part: human IgG Fc part, a tag and dimerising handle that is captured by the goat anti-human Fc antibody on the plate
T2 sequence (P16581 22-175 limits assumed): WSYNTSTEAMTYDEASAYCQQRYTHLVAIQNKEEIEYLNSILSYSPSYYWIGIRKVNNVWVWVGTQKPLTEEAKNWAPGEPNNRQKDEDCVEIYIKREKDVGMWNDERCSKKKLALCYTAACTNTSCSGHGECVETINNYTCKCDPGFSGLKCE
Description: as §1, §2

[3] = molecular target: T3, human L-Selectin-IgG-chimera (Homo sapiens, UniProt P14151); test: Sialyl Lewis x Tyrosine Sulfate Assay (sLex TSA), L-selectin; assay type: binding; details: for inhibition at 100 µM / L-Selectin [% Inhib.]: compound at 100 μM; for inhibition at 100 µM: read-out: L-Selectin [% Inhib.]
T3 construct: fused on or other part: human IgG Fc part, a tag and dimerising handle that is captured by the goat anti-human Fc antibody on the plate
T3 sequence (P14151 39-318 limits assumed): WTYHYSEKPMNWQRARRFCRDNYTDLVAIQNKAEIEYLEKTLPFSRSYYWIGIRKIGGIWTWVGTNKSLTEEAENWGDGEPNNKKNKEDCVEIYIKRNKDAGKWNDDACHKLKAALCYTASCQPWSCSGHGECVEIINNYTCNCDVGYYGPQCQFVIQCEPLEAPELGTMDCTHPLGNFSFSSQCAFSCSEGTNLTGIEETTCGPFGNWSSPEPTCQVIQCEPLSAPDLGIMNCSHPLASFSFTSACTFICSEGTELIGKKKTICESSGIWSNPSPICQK
Description: as §1, §2

[4] = Parallel Artificial Membrane Permeation Assay (PAMPA); assay type: in vitro ADME; details: 16 hours, room temperature
Description: The test compounds are dissolved at 10 mM in DMSO and diluted to 500 μM with PBS pH 7.4 or pH 4.0, respectively resulting in ‘donor solutions’. For use as an artificial membrane, a 1% solution of lecithin (w/v) in dodecane is prepared and sonicated. Then, 5 μl of the lecithin/dodecane mixture are carefully pipetted into each donor plate well. Immediately after the application of the artificial membrane, 150 μl of drug containing donor solutions are added to each well of the donor plate. Each well of the acceptor plate is filled with 300 μl buffer (PBS with 5% DMSO at pH 7.4 or pH 4.0, respectively) and the drug-filled donor plate is placed onto the acceptor plate, making sure the membrane is in contact with the buffer. After replacement of the lid, the assembled plates are transferred into a sealed box equipped with a moistured towel and incubated at room temperature for 16 hours. Then, the wells of the acceptor plate are analyzed with LC/MS.

Work on `COC(=O)Cc1cccc(-c2ccccc2NC(=O)CCc2cc(O)c(O)c(O)c2)c1` [Compound 73, {2′-[3-(3,4,5-Trihydroxy-phenyl)-propionylamino]-biphenyl-3-yl}-acetic acid methyl ester] yielded an inhibition at 100 µM [1] of 84%, an inhibition at 100 µM [2] of 54% and an inhibition at 100 µM [3] of 88%.
`COC(=O)c1ccccc1NC(=O)Cc1ccc(O)c(O)c1O` [Compound 93] showed an inhibition at 100 µM [1] of 68%, an inhibition at 100 µM [2] of 20% and an inhibition at 100 µM [3] of 63%. The “[% flux] at pH 4.0” value ([4]; pH 4.0, 500 μM donor) was 0% and the “[% flux] at pH 7.4” value ([4]; pH 7.4, 500 μM donor) was 17%.
`O=C(O)Cc1cccc(-c2ccccc2NC(=O)Cc2cc(O)c(O)c(O)c2)c1` [Compound 94] showed an IC50 [1] of 4.2 µM, an inhibition at 100 µM [1] of 78% and an IC50 [2] of 4.9 µM. It also gave an inhibition at 100 µM [2] of 79%, an IC50 [3] of 8.7 µM and an inhibition at 100 µM [3] of 76%.
In the case of `O=C(O)Cc1cccc(-c2ccccc2NC(=O)CCc2cc(O)c(O)c(O)c2)c1` [Compound 95], the “P-Selectin [% Inhib.]” value [1] is reported as 90%, the “E-Selectin [% Inhib.]” value [2] is reported as 89% and the “L-Selectin [% Inhib.]” value [3] is reported as 81%.
Molecule `O=C(Cc1cc(O)c(O)c(O)c1)Nc1cccc(C(=O)O)c1` [Compound 96] has an IC50 [1] of 1.1 µM, an inhibition at 100 µM [1] of 86% and an IC50 [2] of 0.8 µM. It also gave an inhibition at 100 µM [2] of 63%, an IC50 [3] of 1.4 µM and an inhibition at 100 µM [3] of 73%.
For `O=C(O)Cc1cccc(NC(=O)Cc2cc(O)c(O)c(O)c2)c1` [Compound 98], the IC50 [1] was 2.1 µM, the inhibition at 100 µM [1] was 57% and the IC50 [2] was 1 µM. For the same molecule, the inhibition at 100 µM [2] was 58% and the inhibition at 100 µM [3] was 52%.
With `O=C(Cc1ccc(O)c(O)c1O)NCC1CCC(C(=O)O)CC1` (stereo not drawn) [Compound 100] the “P-Selectin [% Inhib.]” value [1] was 40%, the “E-Selectin [% Inhib.]” value [2] was 21% and the “L-Selectin [% Inhib.]” value [3] was 27%.
With `O=C(O)Cc1ccc(-c2ccccc2NC(=O)Cc2cc(O)c(O)c(O)c2)s1` [Compound 103] the “P-Selectin [% Inhib.]” value [1] was 87%, the “E-Selectin [% Inhib.]” value [2] was 68% and the “L-Selectin [% Inhib.]” value [3] was 81%.
With `O=C(Cc1cc(O)c(O)c(O)c1)NCC1CCC(C(=O)O)CC1` (stereo not drawn) [Compound 104] the IC50 [1] was 2.8 µM, the inhibition at 100 µM [1] was 67% and the IC50 [2] was 3 µM. For the same molecule, the inhibition at 100 µM [2] was 67%, the IC50 [3] was 3.3 µM and the inhibition at 100 µM [3] was 62%.
Work on `O=C(CCc1cc(O)c(O)c(O)c1)NCC1CCC(C(=O)O)CC1` (stereo not drawn) [Compound 105] yielded an IC50 [1] of 3.4 µM, an inhibition at 100 µM [1] of 86% and an IC50 [2] of 3.1 µM. It also gave an inhibition at 100 µM [2] of 90%, an IC50 [3] of 5.7 µM and an inhibition at 100 µM [3] of 84%.
In the case of `O=C(O)Cc1ccc(-c2ccccc2NC(=O)CCc2ccc(O)c(O)c2O)s1` [Compound 106], the “P-Selectin [% Inhib.]” value [1] is reported as 94%, the “E-Selectin [% Inhib.]” value [2] is reported as 52% and the “L-Selectin [% Inhib.]” value [3] is reported as 85%.
With `Cc1ccc(C(=O)O)cc1NC(=O)Cc1cc(O)c(O)c(O)c1` [Compound 107] the “P-Selectin [% Inhib.]” value [1] was 87%, the “E-Selectin [% Inhib.]” value [2] was 53% and the “L-Selectin [% Inhib.]” value [3] was 75%.
With `Cc1ccc(C(=O)O)cc1NC(=O)CCc1cc(O)c(O)c(O)c1` [Compound 108] the IC50 [1] was 1.7 µM, the inhibition at 100 µM [1] was 86% and the IC50 [2] was 1.3 µM. The inhibition at 100 µM [2] was 85%, the IC50 [3] was 1.8 µM and the inhibition at 100 µM [3] was 84%.
With `O=C(O)Cc1cccc(NC(=O)CCc2cc(O)c(O)c(O)c2)c1` [Compound 109] the inhibition at 100 µM [1] was 73%, the IC50 [2] was 2.3 µM and the inhibition at 100 µM [2] was 82%. It also gave an inhibition at 100 µM [3] of 72%.
In the case of `O=C(CCc1cc(O)c(O)c(O)c1)Nc1cccc(C(=O)O)c1` [Compound 110], the “P-Selectin [% Inhib.]” value [1] is reported as 96%, the “E-Selectin [% Inhib.]” value [2] is reported as 96% and the “L-Selectin [% Inhib.]” value [3] is reported as 92%.
With `O=C(Cc1ccc(O)c(O)c1O)Nc1cccc(C(=O)O)c1` [Compound 111] the IC50 [1] was 2.1 µM, the inhibition at 100 µM [1] was 99% and the IC50 [2] was 0.6 µM. For the same molecule, the inhibition at 100 µM [2] was 46%, the IC50 [3] was 7 µM and the inhibition at 100 µM [3] was 97%.
In the case of `O=C(O)Cc1cccc(NC(=O)Cc2ccc(O)c(O)c2O)c1` [Compound 112], the IC50 [1] is reported as 7.4 µM, the inhibition at 100 µM [1] is reported as 97% and the inhibition at 100 µM [2] is reported as 38%. The IC50 [3] was 16 µM and the inhibition at 100 µM [3] was 83%.
In the case of `Cc1c(NC(=O)Cc2ccc(O)c(O)c2O)cccc1C(=O)O` [Compound 113], the “P-Selectin [% Inhib.]” value [1] is reported as 73%, the “E-Selectin [% Inhib.]” value [2] is reported as 42% and the “L-Selectin [% Inhib.]” value [3] is reported as 48%.
For `O=C(CCc1ccc(O)c(O)c1O)Nc1cccc(C(=O)O)c1` [Compound 114], the “P-Selectin [% Inhib.]” value [1] was 99%, the “E-Selectin [% Inhib.]” value [2] was 38% and the “L-Selectin [% Inhib.]” value [3] was 95%.
With `Cc1c(NC(=O)CCc2ccc(O)c(O)c2O)cccc1C(=O)O` [Compound 115] the “P-Selectin [% Inhib.]” value [1] was 89% and the “L-Selectin [% Inhib.]” value [3] was 88%.
For `Cc1ccc(C(=O)O)cc1NC(=O)CCc1ccc(O)c(O)c1O` [Compound 116], the IC50 [1] was 13 µM, the inhibition at 100 µM [1] was 88% and the IC50 [2] was 7.3 µM. For the same molecule, the inhibition at 100 µM [2] was 92%, the IC50 [3] was 15 µM and the inhibition at 100 µM [3] was 87%.
With `Cc1c(NC(=O)CCc2cc(O)c(O)c(O)c2)cccc1C(=O)O` [Compound 117] the IC50 [1] was 21.7 µM, the inhibition at 100 µM [1] was 86% and the IC50 [2] was 8.4 µM. For the same molecule, the inhibition at 100 µM [2] was 94%, the IC50 [3] was 109 µM and the inhibition at 100 µM [3] was 89%.
With `O=C(Cc1ccc(O)c(O)c1O)NCc1ccc(C(=O)O)cc1` [Compound 119] the “P-Selectin [% Inhib.]” value [1] was 82%, the “E-Selectin [% Inhib.]” value [2] was 14% and the “L-Selectin [% Inhib.]” value [3] was 55%.
